Values joined by “and” are separate entries in the source; they are usually repeats but may differ in a detail not shown here. Equal values may be shown once. Toxic doses and inconclusive results are not listed.
Tested on: L1210 leukemia ip in BDF1 mice, survival T/C
Experiment: NCI In Vivo Anticancer Drug Screen. Data for tumor model L1210 Leukemia (intraperitoneal) in B6D2F1 (BDF1) mice
Conditions: endpoint: mean survival time, higher = longer survival
Procedure, shortened: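 Tumor was transplanted into mice, which were then dosed with test compound or vehicle alone. Survival was recorded for each group, and the treated figure was expressed relative to the control figure.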

[1] = dose: 100.0 mg/kg/injection, schedule: Q04DX002 (ip), vehicle: Klucel (hydroxypropylcellulose) (HPC)
[2] = dose: 100.0 mg/kg/injection, schedule: Q04DX002 (ip), vehicle: saline with Tween-80
[3] = dose: 200.0 mg/kg/injection, schedule: Q04DX002 (ip), vehicle: saline with Tween-80
[4] = dose: 400.0 mg/kg/injection, schedule: Q04DX002 (ip), vehicle: saline with Tween-80
[5] = dose: 100.0 mg/kg/injection, schedule: Q01DX009 (ip), vehicle: Klucel (hydroxypropylcellulose) (HPC)
[6] = dose: 100.0 mg/kg/injection, schedule: Q04DX003 (ip), vehicle: Klucel (hydroxypropylcellulose) (HPC)
[7] = dose: 200.0 mg/kg/injection, schedule: Q01DX009 (ip), vehicle: Klucel (hydroxypropylcellulose) (HPC)
[8] = dose: 200.0 mg/kg/injection, schedule: Q04DX003 (ip), vehicle: Klucel (hydroxypropylcellulose) (HPC)
[9] = dose: 400.0 mg/kg/injection, schedule: Q01DX009 (ip), vehicle: Klucel (hydroxypropylcellulose) (HPC)
[10] = dose: 400.0 mg/kg/injection, schedule: Q04DX003 (ip), vehicle: Klucel (hydroxypropylcellulose) (HPC)
[11] = dose: 100.0 mg/kg/injection, schedule: Q01DX009 (ip), vehicle: saline with Tween-80
[12] = dose: 100.0 mg/kg/injection, schedule: Q04DX003 (ip), vehicle: saline with Tween-80
[13] = dose: 200.0 mg/kg/injection, schedule: Q01DX009 (ip), vehicle: saline with Tween-80
[14] = dose: 200.0 mg/kg/injection, schedule: Q04DX003 (ip), vehicle: saline with Tween-80
[15] = dose: 400.0 mg/kg/injection, schedule: Q04DX003 (ip), vehicle: saline with Tween-80
[16] = dose: 200.0 mg/kg/injection, schedule: Q01DX001 (ip), vehicle: steriod suspending solution
[17] = dose: 400.0 mg/kg/injection, schedule: Q01DX001 (ip), vehicle: steriod suspending solution

In the case of `CCOC(=O)/C(C#N)=C/c1cccn1Cc1cc(OC)c(OC)cc1[N+](=O)[O-]`, the T/C (dose: 25.0 mg/kg/injection, schedule: Q04DX002 (ip), vehicle: Klucel (hydroxypropylcellulose) (HPC)) is reported as 110 % of control, the T/C (dose: 50.0 mg/kg/injection, schedule: Q04DX002 (ip), vehicle: Klucel (hydroxypropylcellulose) (HPC)) is reported as 89 % of control and the T/C [1] is reported as 96 % of control.

In the case of `[Si]c1ccccc1`, the T/C [2] is reported as 102 % of control, the T/C [3] is reported as 93 % of control and the T/C [4] is reported as 98 % of control.

With `Nc1ncc(C=O)c(N)n1` the T/C (dose: 6.25 mg/kg/injection, schedule: Q01DX009 (ip), vehicle: Klucel (hydroxypropylcellulose) (HPC)) was 113 % of control and the T/C (dose: 12.5 mg/kg/injection, schedule: Q01DX009 (ip), vehicle: Klucel (hydroxypropylcellulose) (HPC)) was 100 % of control.

For `CCC/C=C/C(C)C`, the T/C [5] was 105 % of control, the T/C [6] was 93 % of control and the T/C [7] was 92 % of control. The T/C [8] was 97 % of control, the T/C [9] was 95 % of control and the T/C [10] was 101 % of control.

`C=CCOCC(O)COP(=O)(O)O` (configuration not stated) (tested in a mixture with another compound) was tested, and the T/C (dose: 50.0 mg/kg/injection, schedule: Q01DX001 (ip), vehicle: saline) was 111 % of control and 107 % of control and 97 % of control, the T/C (dose: 100.0 mg/kg/injection, schedule: Q01DX001 (ip), vehicle: saline) was 100 % of control and 107 % of control and 103 % of control and the T/C (dose: 200.0 mg/kg/injection, schedule: Q01DX001 (ip), vehicle: saline) was 100 % of control and 97 % of control and 103 % of control. For the same molecule, the T/C (dose: 400.0 mg/kg/injection, schedule: Q01DX001 (ip), vehicle: saline) was 94 % of control and 103 % of control.

`CCOC(=O)Nc1cc(NC(c2ccccc2)c2ccccc2)c2[nH]cnc2n1` was tested, and the T/C (dose: 4.0 mg/kg/injection, schedule: Q01DX009 (ip), vehicle: other) was 92 % of control, the T/C (dose: 5.0 mg/kg/injection, schedule: Q01DX001 (ip), vehicle: other) was 104 % of control and the T/C (dose: 7.0 mg/kg/injection, schedule: Q01DX009 (ip), vehicle: other) was 93 % of control. For the same molecule, the T/C (dose: 9.0 mg/kg/injection, schedule: Q01DX009 (ip), vehicle: other) was 95 % of control, the T/C (dose: 9.0 mg/kg/injection, schedule: Q01DX009 (ip), vehicle: steriod suspending solution) was 97 % of control and the T/C (dose: 10.0 mg/kg/injection, schedule: Q01DX001 (ip), vehicle: other) was 102 % of control. For the same molecule, the T/C (dose: 12.0 mg/kg/injection, schedule: Q01DX009 (ip), vehicle: other) was 92 % of control, the T/C (dose: 13.0 mg/kg/injection, schedule: Q01DX009 (ip), vehicle: other) was 95 % of control and the T/C (dose: 13.0 mg/kg/injection, schedule: Q01DX009 (ip), vehicle: steriod suspending solution) was 97 % of control. For the same molecule, the T/C (dose: 18.0 mg/kg/injection, schedule: Q01DX001 (ip), vehicle: steriod suspending solution) was 98 % of control, the T/C (dose: 20.0 mg/kg/injection, schedule: Q01DX001 (ip), vehicle: other) was 100 % of control and 106 % of control and the T/C (dose: 20.0 mg/kg/injection, schedule: Q01DX009 (ip), vehicle: other) was 95 % of control and 112 % of control. For the same molecule, the T/C (dose: 20.0 mg/kg/injection, schedule: Q01DX009 (ip), vehicle: steriod suspending solution) was 103 % of control, the T/C (dose: 26.0 mg/kg/injection, schedule: Q01DX001 (ip), vehicle: steriod suspending solution) was 100 % of control and the T/C (dose: 30.0 mg/kg/injection, schedule: Q01DX001 (ip), vehicle: other) was 119 % of control. For the same molecule, the T/C (dose: 30.0 mg/kg/injection, schedule: Q01DX009 (ip), vehicle: other) was 105 % of control, the T/C (dose: 30.0 mg/kg/injection, schedule: Q01DX009 (ip), vehicle: steriod suspending solution) was 124 % of control and the T/C (dose: 40.0 mg/kg/injection, schedule: Q01DX001 (ip), vehicle: other) was 164 % of control. For the same molecule, the T/C (dose: 40.0 mg/kg/injection, schedule: Q01DX001 (ip), vehicle: steriod suspending solution) was 105 % of control, the T/C (dose: 50.0 mg/kg/injection, schedule: Q01DX001 (ip), vehicle: other) was 155 % of control and the T/C (dose: 60.0 mg/kg/injection, schedule: Q01DX001 (ip), vehicle: other) was 119 % of control. For the same molecule, the T/C (dose: 60.0 mg/kg/injection, schedule: Q01DX001 (ip), vehicle: steriod suspending solution) was 111 % of control, the T/C (dose: 80.0 mg/kg/injection, schedule: Q01DX001 (ip), vehicle: other) was 107 % of control and the T/C (dose: 100.0 mg/kg/injection, schedule: Q01DX001 (ip), vehicle: other) was 107 % of control.

`COC(=O)CCc1ccc(OC)cc1` was tested, and the T/C (dose: 100.0 mg/kg/injection, schedule: Q04DX003 (ip), vehicle: other) was 100 % of control, the T/C (dose: 200.0 mg/kg/injection, schedule: Q04DX003 (ip), vehicle: other) was 99 % of control and the T/C (dose: 400.0 mg/kg/injection, schedule: Q04DX003 (ip), vehicle: other) was 106 % of control.

In the case of `CNc1nc(N)c(N=O)c(Nc2ccc(Br)cc2)n1`, the T/C (dose: 100.0 mg/kg/injection, schedule: Q01DX001 (ip), vehicle: carboxymethylcellulose (CMC)) is reported as 102 % of control, the T/C (dose: 200.0 mg/kg/injection, schedule: Q01DX001 (ip), vehicle: carboxymethylcellulose (CMC)) is reported as 104 % of control and the T/C (dose: 400.0 mg/kg/injection, schedule: Q01DX001 (ip), vehicle: carboxymethylcellulose (CMC)) is reported as 102 % of control.

`Cc1ccc([P+](Cc2ccccc2)(c2ccccc2)c2ccc(C)cc2)cc1` was tested, and the T/C (dose: 15.0 mg/kg/injection, schedule: Q01DX001 (ip), vehicle: saline) was 96 % of control.

In the case of `CCCCCCCCC(=O)CCCCCC`, the T/C [11] is reported as 99 % of control, the T/C [12] is reported as 105 % of control and the T/C [13] is reported as 97 % of control. The T/C [14] was 108 % of control, the T/C (dose: 400.0 mg/kg/injection, schedule: Q01DX009 (ip), vehicle: saline with Tween-80) was 99 % of control and the T/C [15] was 101 % of control.

With `c1ccc(-c2c[nH]c(-c3ccccc3)c2)cc1` the T/C [6] was 124 % of control, the T/C [16] was 103 % of control and the T/C [8] was 100 % of control. The T/C [17] was 103 % of control and the T/C [10] was 94 % of control.

For `CCN(CC)C(=S)[S][Pb]([S]C(=S)N(CC)CC)([c]1ccccc1)[c]1ccccc1`, the T/C (dose: 100.0 mg/kg/injection, schedule: Q01DX001 (ip), vehicle: steriod suspending solution) was 97 % of control, the T/C [16] was 98 % of control and the T/C [17] was 100 % of control.

In the case of `O=[N+]([O-])c1cccc(N=Cc2ccccc2)c1`, the T/C [5] is reported as 117 % of control, the T/C [6] is reported as 88 % of control and the T/C [7] is reported as 111 % of control. For the same molecule, the T/C [8] was 96 % of control, the T/C [9] was 88 % of control and the T/C [10] was 97 % of control.

`CCOC(=O)c1c[nH]c2cc(OCC3CC3)c(OCC3CC3)cc2c1=O` was tested, and the T/C [11] was 92 % of control.

`CCOc1ccc2nc(N)sc2c1` was tested, and the T/C (dose: 50.0 mg/kg/injection, schedule: Q01DX009 (ip), vehicle: Klucel (hydroxypropylcellulose) (HPC)) was 94 % of control, the T/C [5] was 110 % of control and the T/C (dose: 100.0 mg/kg/injection, schedule: Q04DX003 (ip), vehicle: saline) was 99 % of control. The T/C [7] was 111 % of control and the T/C (dose: 200.0 mg/kg/injection, schedule: Q04DX003 (ip), vehicle: saline) was 89 % of control.

`CCC(O)(CC(=O)O)c1ccccc1` (configuration not stated) was tested, and the T/C [11] was 91 % of control, the T/C [12] was 104 % of control and the T/C [13] was 96 % of control. The T/C [14] was 104 % of control and the T/C [15] was 105 % of control.

For `COc1c(NC(=O)c2ccc([N+](=O)[O-])cc2)cccc1[N+](=O)[O-]`, the T/C [1] was 89 % of control, the T/C (dose: 200.0 mg/kg/injection, schedule: Q04DX002 (ip), vehicle: Klucel (hydroxypropylcellulose) (HPC)) was 95 % of control and the T/C (dose: 400.0 mg/kg/injection, schedule: Q04DX002 (ip), vehicle: Klucel (hydroxypropylcellulose) (HPC)) was 89 % of control.

With `NC(=NC(=O)c1ccccc1)N[N+](=O)[O-]` the T/C (dose: 100.0 mg/kg/injection, schedule: Q04DX002 (ip), vehicle: gum acacia) was 104 % of control, the T/C (dose: 200.0 mg/kg/injection, schedule: Q04DX002 (ip), vehicle: gum acacia) was 107 % of control and the T/C (dose: 400.0 mg/kg/injection, schedule: Q04DX002 (ip), vehicle: gum acacia) was 104 % of control.

In the case of `N[n+]1ccccc1`, the T/C [2] is reported as 102 % of control, the T/C [3] is reported as 102 % of control and the T/C [4] is reported as 98 % of control.

With `Cc1c(C(=O)O)no[n+]1[O-]` the T/C (dose: 100.0 mg/kg/injection, schedule: Q04DX002 (ip), vehicle: saline) was 104 % of control, the T/C (dose: 200.0 mg/kg/injection, schedule: Q04DX002 (ip), vehicle: saline) was 95 % of control and the T/C (dose: 400.0 mg/kg/injection, schedule: Q04DX002 (ip), vehicle: saline) was 87 % of control.
